Measured values published in EPA's ToxRefDB 2.

Experiments:
rabbit = conditions: Prenatal developmental toxicity study, Oral, Gavage/Intubation, dose end: 19 GD, group: maternal
rat [1] = conditions: Sub-acute repeat dose toxicity; wistar; Injection; Intravenous; dose end: 14 day; group: systemic; systemic / in life observation / clinical signs / skin discoloration + systemic / pathology microscopic / skin / inflammation + systemic / …
rat [2] = conditions: Fertility (Segment I); Oral; Gavage/Intubation; dose end: 1 generation; group: parental; systemic / in life observation / body weight / body weight gain + systemic / in life observation / food consumption / food consumption
primate [3] = conditions: Chronic toxicity, Oral, Gavage/Intubation, dose end: 182 day, group: systemic
primate [4] = conditions: Sub-acute repeat dose toxicity, Injection, Intravenous, dose end: 14 day, group: systemic
rat [5] = conditions: Sub-acute repeat dose toxicity, wistar, Oral, Feed, dose end: 14 day, group: systemic
rat [6] = conditions: Sub-acute repeat dose toxicity, wistar, Oral, Gavage/Intubation, dose end: 14 day, group: systemic
mouse [7] = conditions: Chronic toxicity, cd1, Oral, Feed, dose end: 109 week, group: systemic
mouse [8] = conditions: Subchronic oral toxicity in rodents, b6c3f1, Gavage/Intubation, dose end: 13 week, group: systemic
rat [9] = conditions: Sub-acute repeat dose toxicity; fischer; Oral; Gavage/Intubation; dose end: 16 day; group: systemic; systemic / in life observation / clinical signs / altered breathing rate + systemic / in life observation / clinical signs / ataxia + …
mouse [10] = conditions: Carcinogenicity, b6c3f1, Oral, Gavage/Intubation, dose end: 103 week, group: systemic
mouse [11] = conditions: Sub-acute repeat dose toxicity; b6c3f1; Oral; Gavage/Intubation; dose end: 16 day; group: systemic; systemic / in life observation / clinical signs / altered breathing rate + systemic / in life observation / clinical signs / ataxia + …
rat [12] = conditions: Chronic toxicity, sprague dawley, Oral, Feed, dose end: 110 week
rat [13] = conditions: Subchronic oral toxicity in rodents, fischer, Gavage/Intubation, dose end: 13 week, group: systemic
rat [14] = conditions: Carcinogenicity; fischer; Oral; Gavage/Intubation; dose end: 103 week; group: systemic; systemic / pathology microscopic / kidney / nephropathy + systemic / pathology microscopic / liver / degeneration + systemic / pathology …
[15] = reproductive / reproductive performance / aborted / aborted + systemic / in life observation / body weight / body weight + systemic / in …
[16] = systemic / clinical chemistry / protein / protein + systemic / hematology / red blood cell distribution width (rdw) / red blood cell …
[17] = systemic / pathology gross / lymph node / enlarged + systemic / in life observation / clinical signs / salivation + systemic / in life …
[18] = systemic / clinical chemistry / albumin / albumin + systemic / clinical chemistry / globulins / globulins + systemic / clinical chemistry / …
[19] = systemic / hematology / hematocrit (hct) / hematocrit (hct) + systemic / in life observation / body weight / body weight + systemic / in …
[20] = systemic / hematology / [other] / [other] + systemic / hematology / erythrocyte (rbc) count differential / erythrocyte (rbc) + systemic / …
[21] = systemic / hematology / erythrocyte (rbc) count differential / erythrocyte (rbc) + systemic / hematology / hematocrit (hct) / hematocrit (…
[22] = systemic / hematology / hematocrit (hct) / hematocrit (hct) + systemic / hematology / hemoglobin (hgb) / hemoglobin (hgb) + systemic / …
[23] = systemic / organ weight / liver / nos
[24] = systemic / organ weight / liver / absolute + systemic / organ weight / liver / relative to body weight + systemic / pathology microscopic / …
[25] = systemic / pathology microscopic / liver / eosinophilic focus + systemic / pathology microscopic / liver / syncytial alteration
[26] = systemic / pathology microscopic / liver / eosinophilic focus + systemic / pathology microscopic / liver / syncytial alteration + systemic…
[27] = group: cholinesterase, cholinesterase / cholinesterase / cholinesterase / plasma cholinesterase (che)
[28] = group: systemic, systemic / clinical chemistry / cholesterol / cholesterol
[29] = group: systemic, systemic / clinical chemistry / cholesterol / cholesterol + systemic / clinical chemistry / glucose / glucose + systemic / clinical …

## CCC(C)C(NC(=O)c1ccccc1SSc1ccccc1C(=O)NC(C(=O)O)C(C)CC)C(=O)O (centres undefined) [CI-1012]
rabbit; [15]
  LOAEL: > 250 mg/kg/day
  NEL: 25 mg/kg/day
  NOAEL: ≥ 250 mg/kg/day
rabbit; reproductive / reproductive performance / aborted / aborted + systemic / in life observation / body weight / body weight gain + systemic / …
  LEL: 100 mg/kg/day
Rat [1]
  LEL: 25 mg/kg/day
  LOAEL: > 100 mg/kg/day
  NEL: < 25 mg/kg/day
  NOAEL: ≥ 100 mg/kg/day
Rat [2]
  LEL: 100 mg/kg/day
  LOAEL: > 500 mg/kg/day
  NEL: 50 mg/kg/day
  NOAEL: ≥ 500 mg/kg/day
Primate [3]; [16]
  LOAEL: > 250 mg/kg/day
  NOAEL: ≥ 250 mg/kg/day
Primate [3]; [17]
  LEL: 50 mg/kg/day
  NEL: < 50 mg/kg/day
Primate [4]; [18]
  LEL: 75 mg/kg/day
  NEL: 25 mg/kg/day
Primate [4]; [19]
  LOAEL: > 125 mg/kg/day
  NOAEL: ≥ 125 mg/kg/day
Rat [5]; [20]
  LOAEL: > 1500 mg/kg/day
  NOAEL: ≥ 1500 mg/kg/day
Rat [5]; [21]
  LEL: 250 mg/kg/day
  NEL: 100 mg/kg/day
Rat [6]; [22]
  LOAEL: > 1500 mg/kg/day
  NEL: 100 mg/kg/day
  NOAEL: ≥ 1500 mg/kg/day
Rat [6]; systemic / organ weight / spleen / absolute + systemic / pathology microscopic / stomach / hyperplasia
  LEL: 250 mg/kg/day

## O=c1ccc2ccccc2o1 [Coumarin]
Mouse [7]; systemic / in life observation / body weight / body weight gain
  LEL: 85.8 mg/kg/day
Mouse [7]; systemic / in life observation / body weight / body weight gain + systemic / in life observation / food consumption / food efficiency
  NEL: 26.2 mg/kg/day
Mouse [7]; [23]
  LOAEL: > 271 mg/kg/day
  NOAEL: ≥ 271 mg/kg/day
Mouse [8]; systemic / hematology / mean corpuscular (cell) volume (mcv) / mean corpuscular (cell) volume (mcv) + systemic / hematology / mean …
  LEL: 38 mg/kg/day
Mouse [8]; systemic / in life observation / body weight / body weight + systemic / in life observation / body weight / body weight gain + systemic / …
  NEL: 19 mg/kg/day
Mouse [8]; [24]
  LOAEL: 300 mg/kg/day
  NOAEL: 150 mg/kg/day
Rat [9]
  LEL: 400 mg/kg/day
  LOAEL: > 400 mg/kg/day
  NEL: 200 mg/kg/day
  NOAEL: ≥ 400 mg/kg/day
Mouse [10]; [25]
  LOAEL: 50 mg/kg/day
  NOAEL: < 50 mg/kg/day
Mouse [10]; [26]
  LEL: 50 mg/kg/day
  NEL: < 50 mg/kg/day
Mouse [11]
  LEL: 300 mg/kg/day
  LOAEL: 300 mg/kg/day
  NEL: 150 mg/kg/day
  NOAEL: 150 mg/kg/day
Rat [12]; [27]
  LEL: 16 mg/kg/day
  LOAEL: > 283 mg/kg/day
  NEL: < 16 mg/kg/day
  NOAEL: ≥ 283 mg/kg/day
Rat [12]; [28]
  LEL: 13 mg/kg/day
  NEL: < 13 mg/kg/day
Rat [12]; [29]
  LOAEL: > 234 mg/kg/day
  NOAEL: ≥ 234 mg/kg/day
Rat [13]; systemic / hematology / erythrocyte (rbc) count differential / erythrocyte (rbc) + systemic / hematology / mean corpuscular (cell) volume (…
  LEL: 75 mg/kg/day
Rat [13]; [24]
  LOAEL: 150 mg/kg/day
  NEL: 38 mg/kg/day
  NOAEL: 75 mg/kg/day
Rat [14]
  LEL: 25 mg/kg/day
  LOAEL: 25 mg/kg/day
  NEL: < 25 mg/kg/day
  NOAEL: < 25 mg/kg/day
